# Laboratory results as given in patent US20230227449A1, “AMIDOPYRIMIDONE DERIVATIVES” (Hoffmann-La Roche Inc., priority 2020, published 2023).
# Counter-ions that a name gives are not always drawn.
# Target: Recombinant human Mat2a (Homo sapiens, UniProt P31153)
# Experiment: Determination of Mat2A activity (384 well absorbance-based assay, Biomol Green)
# Assay type: biochemical
# Conditions: 12.5 nM Mat2A, 100 μM ATP and Methionine, 2% DMSO, 120 minutes at RT, absorbance at 635 nm
# Experimental: Determination of Mat2A activity
# Measurement of Mat2A inhibition is performed in 384 well format absorbance-based assay. Recombinant human Mat2a (12.5 nM) and serial diluted compounds in DMSO (range of concentrations from […] to 508 pM) or controls (DMSO) are incubated for 15 minutes at room temperature (RT) in assay buffer containing 50 mM HEPES pH 7.5, 50 mM KCl, 50 mM MgCl2, 0.01% Tween 20 and 10 mM DTT. The reaction is initiated by the addition of the combined substrates ATP and Methionine, each at a final concentration of 100 μM. Final assay condition are 12.5 nM Mat2A, 100 μM ATP and Methionine Substrates and 2% DMSO. After 120 minutes of incubation at RT, the reaction is stopped by the addition of Biomol Green. The absorbance signal is measured at λ=635 nm with a multiplate reader (BMG Pherastar reader or equivalent) after 30 min of equilibration at RT.
# Recombinant human Mat2a, sequence (P31153 whole entry): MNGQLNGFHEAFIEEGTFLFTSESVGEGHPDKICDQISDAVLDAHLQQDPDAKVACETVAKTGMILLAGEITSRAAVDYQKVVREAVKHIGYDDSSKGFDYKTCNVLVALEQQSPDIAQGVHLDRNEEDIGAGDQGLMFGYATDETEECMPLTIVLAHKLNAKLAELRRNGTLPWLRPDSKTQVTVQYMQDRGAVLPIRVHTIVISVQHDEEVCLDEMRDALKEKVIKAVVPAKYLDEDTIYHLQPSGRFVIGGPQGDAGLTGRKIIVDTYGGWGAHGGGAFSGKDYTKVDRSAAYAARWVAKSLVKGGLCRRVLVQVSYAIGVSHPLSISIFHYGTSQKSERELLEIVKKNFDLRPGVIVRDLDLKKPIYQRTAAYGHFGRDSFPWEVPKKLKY
row,IC50 [nM],Compound
1,15,"Cc1ncccc1-n1c(=O)nc(N)c2cc(C#N)c(C3CC3)nc21 [Example 37, 4-amino-7-cyclopropyl-1-(2-methylpyridin-3-yl)-2-oxo-1,2-dihydropyrido[2,3-d]pyrimidine-6-carbonitrile]"
2,< 13,"COc1ccccc1-n1c(=O)nc(N)c2ccc(C3CC3)nc21 [Example 2, 4-amino-7-cyclopropyl-1-(2-methoxyphenyl)pyrido[2,3-d]pyrimidin-2(1H)-one]"
3,< 13,"Cc1c(C#N)cccc1-n1c(=O)nc(N)c2ccc(C3CC3)nc21 [Example 15, 3-(4-amino-7-cyclopropyl-2-oxopyrido[2,3-d]pyrimidin-1(2H)-yl)-2-methylbenzonitrile]"
4,16,"Nc1nc(=O)n(-c2ccc(F)cc2Cl)c2nc(C3CC3)ccc12 [Example 155, 4-amino-1-(2-chloro-4-fluorophenyl)-7-cyclopropylpyrido[2,3-d]pyrimidin-2 (1H)-one]"
5,< 13,"Cc1c(C#N)cccc1-n1c(=O)nc(N)c2ccc(C(F)(F)F)nc21 [Example 77, 3-(4-amino-2-oxo-7-(trifluoromethyl)pyrido[2,3-d]pyrimidin-1(2H)-yl)-2-methylbenzonitrile]"
6,57,"CC1COCC1n1c(=O)nc(N)c2ccc(C3CC3)nc21 (centres unmarked) [Example 28, 4-amino-7-cyclopropyl-1-(4-methyltetrahydro-furan-3-yl)pyrido[2,3-d]pyrimidin-2(1H)-one]"
7,< 13,"Cc1c(Cl)cccc1-n1c(=O)nc(N)c2ccc(C3CC3)nc21 [Example 129, 4-amino-1-(3-chloro-2-methylphenyl)-7-cyclopropylpyrido[2,3-d]pyrimidin-2-one]"
8,< 13,"CCc1cccc(-n2c(=O)nc(N)c3ccc(C4CC4)nc32)c1 [Example 68, 4-amino-7-cyclopropyl-1-(3-ethylphenyl)pyrido[2,3-d]pyrimidin-2(1H)-one]"
9,40,"Cc1ncccc1-n1c(=O)nc(O)c2ccc(C3CC3)nc21 [Example 101, 7-cyclopropyl-1-(2-methylpyridin-3-yl)pyrido[2,3-d]pyrimidine-2,4-dione]"
10,< 13,"Cc1ncccc1-n1c(=O)nc(N)c2ccc(C(F)(F)F)nc21 [Example 32, 4-amino-1-(2-methylpyridin-3-yl)-7-(trifluoromethyl)pyrido[2,3-d]pyrimidin-2(1H)-one]"
11,< 13,"Cc1ncccc1-n1c(=O)nc(N)c2ccc(C3CC3)nc21 [Example 7, 4-amino-7-cyclopropyl-1-(2-methylpyridin-3-yl)pyrido[2,3-d]pyrimidin-2(1H)-one]"
12,< 13,"Cc1ccccc1-n1c(=O)nc(N)c2ccc(C3CC3)nc21 [Example 1, 4-amino-7-cyclopropyl-1-(o-tolyl)pyrido[2,3-d]pyrimidin-2(1H)-one]"
13,< 13,"COc1ccc2c(N)nc(=O)n(-c3cccnc3C)c2c1 [Example 39, 4-amino-7-methoxy-1-(2-methylpyridin-3-yl)quinazolin-2(1H)-one]"
14,< 13,"Cc1c(F)cccc1-n1c(=O)nc(N)c2ccc(C3CC3)cc21 [Example 106, 4-amino-7-cyclopropyl-1-(3-fluoro-2-methylphenyl)quinazolin-2-one]"
15,< 13,"Cc1ncccc1-n1c(=O)nc(N)c2ccc([C@H]3C[C@@H]3F)nc21 (racemic) [Example 36, 4-amino-7-[(1RS,2SR)-2-fluorocyclopropyl]-1-(2-methyl-3-pyridyl)pyrido[2,3-d]pyrimidin-2-one]"
16,27,"Cc1ncccc1-n1c(=O)nc(N)c2ccc(C3CCOC3)nc21 (centres unmarked) [Example 93, 4-amino-1-(2-methylpyridin-3-yl)-7-(tetrahydrofuran-3-yl)pyrido[2,3-d]pyrimidin-2 (1H)-one]"
17,< 13,"N#Cc1cccc(-n2c(=O)nc(N)c3ccc(C4CC4)nc32)c1Cl [Example 143, 3-(4-amino-7-cyclopropyl-2-oxopyrido[2,3-d]pyrimidin-1 (2H)-yl)-2-chlorobenzonitrile]"
18,< 13,"Nc1nc(=O)n([C@@H]2CCCOC2)c2nc(C3CC3)ccc12 [Example 26, 4-amino-7-cyclopropyl-1-[(3R)-oxan-3-yl]pyrido[2,3-d]pyrimidin-2-one]"
19,150,"Nc1nc(=O)n(-c2cccnc2Cl)c2nc(C3CC3)ccc12 (single isomer, unassigned) [Example 136, (−)-4-amino-1-(2-chloropyridin-3-yl)-7-cyclopropylpyrido[2,3-d]pyrimidin-2 (1H)-one]"
20,32,"Cc1ncccc1-n1c(=O)nc(N)c2ccc(CC(F)(F)F)cc21 [Example 83, 4-amino-1-(2-methyl-3-pyridyl)-7-(2,2,2-trifluoroethyl)quinazolin-2-one hydrochloride]"
21,< 13,"Cc1cccc(-n2c(=O)nc(N)c3ccc(C4CC4)nc32)c1 [Example 69, 4-amino-7-cyclopropyl-1-(m-tolyl)pyrido[2,3-d]pyrimidin-2(1H)-one]"

row,IC50 [nM],Compound
1,< 13,"Nc1nc(=O)n(-c2cccnc2Cl)c2nc(C3CC3)ccc12 (single isomer, unassigned) [Example 135, (+)-4-amino-1-(2-chloropyridin-3-yl)-7-cyclopropylpyrido[2,3-d]pyrimidin-2 (1H)-one]"
2,< 13,"COc1cccc(-n2c(=O)nc(N)c3ccc(C4CC4)nc32)c1 [Example 71, 4-amino-7-cyclopropyl-1-(3-methoxyphenyl)pyrido[2,3-d]pyrimidin-2(1H)-one]"
3,42,"Nc1nc(=O)n([C@H]2CCCOC2)c2nc(C3CC3)ccc12 [Example 27, 4-amino-7-cyclopropyl-1-[(3S)-oxan-3-yl]pyrido[2,3-d]pyrimidin-2-one]"
4,< 13,"Cc1ncccc1-n1c(=O)nc(N)c2cc(F)c(C3CC3)nc21 [Example 10, 4-amino-7-cyclopropyl-6-fluoro-1-(2-methylpyridin-3-yl)pyrido[2,3-d]pyrimidin-2(1H)-one]"
5,< 13,"Nc1nc(=O)n([C@@H]2CCCOC23CC3)c2nc(C3CC3)ccc12 [Example 141, 4-amino-7-cyclopropyl-1-[(8R)-4-oxaspiro[2.5]octan-8-yl]pyrido[2,3-d]pyrimidin-2-one]"
6,< 13,"Nc1nc(=O)n(-c2cccnc2C(F)(F)F)c2nc(C3CC3)ccc12 [Example 43, 4-amino-7-cyclopropyl-1-(2-(trifluoromethyl)pyridin-3-yl)pyrido[2,3-d]pyrimidin-2(1H)-one]"
7,42,"CC(C1COC1)n1c(=O)nc(N)c2ccc(C3CC3)nc21 (centres unmarked) [Example 81, 4-amino-7-cyclopropyl-1-[1-(oxetan-3-yl)ethyl]pyrido[2,3-d]pyrimidin-2-one]"
8,< 13,"Nc1nc(=O)n(C2CCC(O)C2)c2nc(C3CC3)ccc12 (centres unmarked) [Example 33, 4-amino-7-cyclopropyl-1-(3-hydroxycyclopentyl)pyrido[2,3-d]pyrimidin-2(1H)-one]"
9,95,"Nc1nc(=O)n(-c2cccc3c2CCO3)c2nc(C3CC3)ccc12 [Example 17, 4-amino-7-cyclopropyl-1-(2,3-dihydrobenzofuran-4-yl)pyrido[2,3-d]pyrimidin-2(1H)-one]"
10,16,"Nc1nc(=O)n(-c2ccccc2)c2nc(C3CC3)ccc12 [Example 74, 4-amino-7-cyclopropyl-1-phenylpyrido[2,3-d]pyrimidin-2(1H)-one]"
11,< 13,"Nc1nc(=O)n(-c2cccc3c2CCO3)c2cc(C3CC3)ccc12 [Example 45, 4-amino-7-cyclopropyl-1-(2,3-dihydrobenzofuran-4-yl)quinazolin-2(1H)-one]"
12,< 13,"Nc1nc(=O)n(C2CCCOC23CC3)c2nc(C3CC3)ccc12 (centres unmarked) [Example 88, 4-amino-7-cyclopropyl-1-(4-oxaspiro[2.5]octan-8-yl)pyrido[2,3-d]pyrimidin-2(1H)-one]"
13,< 13,Nc1nc(=O)n(-c2cccc3ncsc23)c2nc(C3CC3)ccc12 [Example 120]
14,< 13,"CCn1nccc1-n1c(=O)nc(N)c2ccc(C3CC3)nc21 [Example 61, 4-amino-7-cyclopropyl-1-(1-ethyl-1H-pyrazol-5-yl)pyrido[2,3-d]pyrimidin-2(1H)-one]"
15,< 13,"Cc1ccccc1-n1c(=O)nc(N)c2ccc(OC(F)F)cc21 [Example 144, 4-amino-7-(difluoromethoxy)-1-(o-tolyl)quinazolin-2 (1H)-one]"
16,< 13,"Nc1nc(=O)n(-c2cccc(F)c2Cl)c2nc(C3CC3)ccc12 (single isomer, unassigned) [Example 116, (+)-4-amino-1-(2-chloro-3-fluorophenyl)-7-cyclopropylpyrido[2,3-d]pyrimidin-2 (1H)-one]"
17,22,"Cc1ccccc1-n1c(=O)nc(N)c2ccc(N3CC(F)(F)C3)nc21 [Example 5, 4-amino-7-(3,3-difluoroazetidin-1-yl)-1-(o-tolyl)pyrido[2,3-d]pyrimidin-2(1H)-one]"
18,31,"Nc1nc(=O)n(-c2ccc(F)c(F)c2)c2nc(C3CC3)ccc12 [Example 147, 4-amino-7-cyclopropyl-1-(3,4-difluorophenyl)pyrido[2,3-d]pyrimidin-2 (1H)-one]"
19,20,"Cc1ncccc1-n1c(=O)nc(N)c2c(Cl)cc(C(F)(F)F)cc21 [Example 87, 4-amino-5-chloro-1-(2-methylpyridin-3-yl)-7-(trifluoromethyl)quinazolin-2(1H)-one]"
20,18,"COc1c(C#N)cccc1-n1c(=O)nc(N)c2cc(Cl)c(C3CC3)nc21 [Example 65, 3-(4-amino-6-chloro-7-cyclopropyl-2-oxopyrido[2,3-d]pyrimidin-1(2H)-yl)-2-methoxybenzonitrile]"
